Test results: publication PMC3849647, “Pharmacokinetics and biodistribution of the cyclin-dependent kinase inhibitor -CR8- in mice” (BMC Pharmacology & Toxicology, 2013)
Values joined by “and” are separate entries in the source; they are usually repeats but may differ in a detail not shown here. Identical values can stand only once. Like-named read-outs stand apart in the source and are kept apart here.

Experiments:
[1] = given i.v. at the same dosage; cited from earlier work
[2] = bone marrow vs plasma; cited from earlier work
CDK5/p25 = system: CDK5/p25; design: method as in PMID 18574471; conditions: cited from earlier work
[3] = Stability of CR8 in plasma quality control samples and solution; format: physicochemical, human
Procedure: Four quality control samples at concentrations of 0.75, 1.5, 3.5 and 7.0 μg/ml were also prepared in triplicate and stored at room temperature, +4°C and −20°C for stability testing.
The stability of CR8 was determined in plasma samples using concentrations of 0.75, 1.5, 3.5 and 7.0 μg/ml (in triplicate). The samples were kept at room temperature, +4°C and −20°C and analyzed twice weekly for 2 months. Peak areas of all the samples were compared to peak areas obtained at time zero.

CDK = system: CDK; design: method as in PMID 18574471; conditions: in-vitro; cited from earlier work
casein kinase 1 (CK1) = target: casein kinase 1 (CK1); design: method as in PMID 18574471; conditions: cited from earlier work
tumor cell lines = conditions: cited from earlier work
[4] = Pharmacokinetics of CR8 in mouse plasma after oral and i.v. administration (HPLC-UV); format: in vivo, mice
Procedure: 70 μl plasma was added to 140 μl methanol and vortexed for 15 sec. Samples were centrifuged at 10000 g for 10 minutes, and 50 μl from the supernatant were injected into the HPLC system.
Female BALB/c mice 8–10 weeks old and weighing 18–21 g were obtained from Scanbur, Sollentuna, Sweden. The mice were allowed to acclimatize to their surroundings for one week before starting treatment. The mice were fed pelleted food and water ad libitum.
CR8 was dissolved in DMSO: 50 mM HCl (10:90 v/v). The first group of mice received i.v. doses of CR8 (50 mg/kg body weight), the second received oral doses of CR8 (100 mg/kg body weight) and three control mice received vehicle alone. Three mice were sacrificed at each time point and blood samples were collected by cardiac puncture into heparinized tubes at 10, 20, 30, 60 min, 2, 4, 6, 8 h post administration. Blood samples were centrifuged immediately after collection at 3000 g for 5 min at 4°C and the plasma was prepared as mentioned previously. Supernatants were collected and all samples were frozen at −20°C directly after preparation until further analysis by HPLC. Other organs including liver, spleen, kidneys, brain, adipose tissue and lungs were removed, washed and snap frozen immediately in liquid nitrogen. Bone marrow was flushed from both femurs and mononuclear cells were counted and frozen. The samples were stored at −20°C to avoid any metabolic activity.
Parameters including distribution volume of the central compartment, elimination rate constant, plasma maximum concentration and micro constants were estimated. Clearance (Cl) and distribution volume at the steady state were calculated from the primary parameters. The plasma concentration versus time curves (AUC) were calculated from the model derived parameters, and the elimination half-lives were calculated from the slope of the terminal elimination phase. Bone marrow data were derived after adjustment of concentrations to 10^9 cells (= approx. 1 g of tissue). The pharmacokinetic modeling was performed using WinNonlin version 5.2 (Pharsight, USA).
Oral bioavailability (F) defined as the fraction of the oral administered dose of CR8 that reaches the systemic circulation was calculated according to the following formula:
F=AUCpo∗doseIV/AUCIV∗dosepo

[5] = Biodistribution of CR8 to mouse organs after oral administration; format: in vivo, mice; design: V2/F: unit not given here; conditions: for AUC / Beta-HL / V2/F / Cmax: single oral 100 mg/kg; for Tissue/plasma exposure ratio (% AUC organ vs. AUC plasma) / Kp: oral 100 mg/kg, 100 mg/kg; for Kp / Cmax: female, BALB/c, mouse; for Kp: po
Procedure: CR8 was dissolved in DMSO: 50 mM HCl (10:90 v/v). The first group of mice received i.v. doses of CR8 (50 mg/kg body weight), the second received oral doses of CR8 (100 mg/kg body weight) and three control mice received vehicle alone. […] Supernatants were collected and all samples were frozen at −20°C directly after preparation until further analysis by HPLC. Other organs including liver, spleen, kidneys, brain, adipose tissue and lungs were removed, washed and snap frozen immediately in liquid nitrogen. Bone marrow was flushed from both femurs and mononuclear cells were counted and frozen. The samples were stored at −20°C to avoid any metabolic activity. […] Femurs were removed and cleaned; bone marrow was flushed with 0.3 ml of PBS and single cell suspension was prepared by gentle flushing through needle and syringe. Nucleated cells were counted using Türk solution and bone marrow was stored at −20°C until assay. Parameters including distribution volume of the central compartment, elimination rate constant, plasma maximum concentration and micro constants were estimated. Clearance (Cl) and distribution volume at the steady state were calculated from the primary parameters. The plasma concentration versus time curves (AUC) were calculated from the model derived parameters, and the elimination half-lives were calculated from the slope of the terminal elimination phase. Bone marrow data were derived after adjustment of concentrations to 10^9 cells (= approx. 1 g of tissue). The pharmacokinetic modeling was performed using WinNonlin version 5.2 (Pharsight, USA).

Structure (SMILES): CC[C@H](CO)Nc1nc(NCc2ccccc2)c2ncn(C(C)C)c2n1 [roscovitine]
- Reported half-life [1]: approximately 1 hour
- Distribution to bone marrow [2]: 1.5%

Structure (SMILES): CC[C@H](CO)Nc1nc(NCc2ccc(-c3ccccn3)cc2)c2ncn(C(C)C)c2n1 [CR8]
- IC50 (CDK5/p25): 120 nM
- Stability (concentration of QC samples remaining vs time zero) ([3]; plasma QC samples, 2 months at room temperature, +4°C or −20°C): approximately 97 ± 3.5%
- Time for which stable ([3]; room temperature, in both solution and plasma): 2 months
- Potency as CDK inhibitor relative to roscovitine (CDK): 2–4 fold
- IC50 (casein kinase 1 (CK1)): 610 nM
- IC50 (tumor cell lines; different cell lines, read-out: Optimal concentration for pharmacological effect in-vitro in different cell lines (reported average IC50)): ~700 nM and 700 nM
- Anti-tumor IC50 values found in-vitro (tumor cell lines; in-vitro, reference not given): 0.3 µg/mL
- Beta-HL ([4]; Plasma, single oral 100 mg/kg): 3.10 h
- V2/F ([4]; Plasma, single oral 100 mg/kg): 21.0
- half-life ([4]; female, BALB/c, mouse, plasma, female BALB/c mice, read-out: Half-life (converted)): ~3 h
- AUC ([4]; female, BALB/c, mouse, plasma, iv, 50 mg/kg, plasma, 50 mg/kg intravenously, read-out: AUC): ~45000 ng·h/mL
- Cmax ([4]; female, BALB/c, mouse, plasma, iv, 50 mg/kg, plasma, i.v. bolus 50 mg/kg, estimated, read-out: Cmax (maximum reached concentration)): > 100000 ng/mL
- AUC ([4]; female, BALB/c, mouse, plasma, iv, 50 mg/kg, plasma, i.v. bolus 50 mg/kg, mice, read-out: AUC (area under time plasma concentration curve)): 44400 ± 3300 ng·h/mL
- half-life ([4]; female, BALB/c, mouse, plasma, iv, 50 mg/kg, plasma, i.v. bolus 50 mg/kg, read-out: Tα (first elimination half-life) (converted)): 0.11 ± 0.01 h
- half-life ([4]; female, BALB/c, mouse, plasma, iv, 50 mg/kg, plasma, i.v. bolus 50 mg/kg, read-out: Tβ (terminal elimination half-life) (converted)): 2.95 ± 0.11 h
- clearance ([4]; female, BALB/c, mouse, plasma, iv, i.v. bolus 50 mg/kg, read-out: CL (clearance) (converted)): 0.383 mL/min
- Vd ([4]; female, BALB/c, mouse, plasma, iv, i.v. bolus 50 mg/kg, read-out: Vss (distribution volume at steady state)): 0.044 ± 0.004 L
- half-life ([4]; female, BALB/c, mouse, plasma, mice, read-out: Elimination half-life (converted)): ~3 h
- bioavailability ([4]; female, BALB/c, mouse, plasma, oral, 100 mg/kg, oral 100 mg/kg vs i.v. 50 mg/kg, F=AUCpo*doseIV/AUCIV*dosepo): ~100%
- Tmax ([4]; female, BALB/c, mouse, plasma, oral, 100 mg/kg, mice, read-out: Time of maximum concentrations (converted)): 0.5 h
- AUC ([4]; female, BALB/c, mouse, plasma, po, 100 mg/kg, Plasma, single oral 100 mg/kg, read-out: AUC): 96000 ng·h/mL
- Cmax ([4]; female, BALB/c, mouse, plasma, po, 100 mg/kg, Plasma, single oral 100 mg/kg, read-out: Cmax): 34300 ng/mL
- AUC ([4]; female, BALB/c, mouse, plasma, po, 100 mg/kg, plasma, 100 mg/kg orally, read-out: AUC): ~100000 ng·h/mL
- AUC ([4]; female, BALB/c, mouse, plasma, po, 100 mg/kg, plasma, single oral 100 mg/kg, mice, read-out: AUC (area under time plasma concentration curve)): 96300 ± 10500 ng·h/mL
- Cmax ([4]; female, BALB/c, mouse, plasma, po, 100 mg/kg, plasma, single oral 100 mg/kg, read-out: Cmax (maximum reached concentration)): 34300 ± 1940 ng/mL
- half-life ([4]; female, BALB/c, mouse, plasma, po, 100 mg/kg, plasma, single oral 100 mg/kg, read-out: Tα (first elimination half-life) (converted)): 1.3 ± 0.43 h
- half-life ([4]; female, BALB/c, mouse, plasma, po, 100 mg/kg, plasma, single oral 100 mg/kg, read-out: Tβ (terminal elimination half-life) (converted)): 3.1 ± 0.35 h
- Cmax after i.v. compared to oral administration ([4]; i.v. 50 mg/kg vs oral 100 mg/kg): 4 fold
- CL (clearance) ([4]; single oral 100 mg/kg): 21 ± 2 mL/h
- Vss (distribution volume at steady state) ([4]; single oral 100 mg/kg): 21 ± 3 mL
- AUC ([5]; Adipose tissue): 181 µg·h/g
- Beta-HL ([5]; Adipose tissue): 2.40 h
- V2/F ([5]; Adipose tissue): 38.2
- AUC ([5]; Bone marrow (10^9 cells = approx. 1 g)): 34 µg·h/g
- Beta-HL ([5]; Bone marrow): 1.98 h
- V2/F ([5]; Bone marrow): 84.5
- AUC ([5]; Brain): 14 µg·h/g
- Beta-HL ([5]; Brain): 2.12 h
- V2/F ([5]; Brain): 447.5
- AUC ([5]; Kidney): 145 µg·h/g
- Beta-HL ([5]; Kidney): 2.62 h
- V2/F ([5]; Kidney): 52.2
- AUC ([5]; Liver): 197 µg·h/g
- Beta-HL ([5]; Liver): 2.43 h
- V2/F ([5]; Liver): 35.8
- AUC ([5]; Lung): 77 µg·h/g
- Beta-HL ([5]; Lung): 2.58 h
- V2/F ([5]; Lung): 96.7
- AUC ([5]; Spleen): 40 µg·h/g
- Beta-HL ([5]; Spleen): 2.60 h
- V2/F ([5]; Spleen): 74.5
- Tissue/plasma exposure ratio (% AUC organ vs. AUC plasma) ([5]; adipose tissue): 180%
- Kp ([5]; adipose tissue, adipose tissue, read-out: Tissue/plasma exposure ratio (% AUC organ vs. AUC plasma)): 1.88
- Kp ([5]; bone marrow, bone marrow, concentrations normalized to tissue weight/g, read-out: Tissue/plasma exposure ratio (% AUC organ vs. AUC plasma)): 0.3
- Kp ([5]; brain, brain, read-out: Tissue/plasma exposure ratio (% AUC organ vs. AUC plasma; concentration in brain vs plasma)): 0.15
- Kp ([5]; kidney, kidney, read-out: Tissue/plasma exposure ratio (% AUC organ vs. AUC plasma)): 1.5
- Kp ([5]; liver, liver, read-out: Tissue/plasma exposure ratio (% AUC organ vs. AUC plasma)): 2.05
- Kp ([5]; lung, lung, read-out: Tissue/plasma exposure ratio): 0.8
- Kp ([5]; spleen, spleen, read-out: Tissue/plasma exposure ratio): 0.5
- Cmax ([5]; Adipose tissue): 48700 ng/g
- Cmax ([5]; Bone marrow): 10600 ng/g
- Cmax ([5]; Brain): 4100 ng/g
- Cmax ([5]; Kidney): 36000 ng/g
- Cmax ([5]; Liver): 52400 ng/g
- Cmax ([5]; Lung): 19300 ng/g
- Cmax ([5]; Spleen): 27700 ng/g
- Tissue/plasma exposure ratio (% AUC organ vs. AUC plasma) ([5]; liver): 200%
